From patent US9260408B2, “Dihydroquinoline-2-one derivatives” (Hoffmann-La Roche Inc., priority 2011, dated 2016) come the findings set out here.

In one test the target is T1, human CYP11B1 (Homo sapiens, UniProt P15538).
T1 construct: expressed in transfected cells
T1 sequence (P15538 25-503): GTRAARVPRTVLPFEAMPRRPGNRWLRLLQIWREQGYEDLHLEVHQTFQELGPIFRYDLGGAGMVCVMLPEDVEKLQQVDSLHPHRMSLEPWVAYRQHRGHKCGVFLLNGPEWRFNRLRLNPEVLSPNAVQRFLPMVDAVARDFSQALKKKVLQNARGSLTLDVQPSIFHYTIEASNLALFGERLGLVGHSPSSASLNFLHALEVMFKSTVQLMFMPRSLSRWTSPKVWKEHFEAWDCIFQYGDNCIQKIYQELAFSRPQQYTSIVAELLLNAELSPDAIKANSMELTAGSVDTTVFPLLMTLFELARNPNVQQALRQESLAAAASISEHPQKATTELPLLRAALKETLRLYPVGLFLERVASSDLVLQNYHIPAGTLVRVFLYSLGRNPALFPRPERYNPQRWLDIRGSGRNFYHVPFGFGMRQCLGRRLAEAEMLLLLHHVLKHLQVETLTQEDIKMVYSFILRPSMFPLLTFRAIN
Put plainly: G-402 cellular enzyme assay, human CYP11B1 (cortisol release, HTRF). Type of test: cell-based. The following applies: G-402 cells expressing human CYP11B1; 1 μM Deoxycortisol. The gist of the method:
(§1)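 EC50 comes from least-squares fitting of a 4-parameter MMF curve to steroid product levels, measured by HTRF as aldosterone for CYP11B2 or cortisol for CYP11B1. Stably transfected G-402 host cells were given substrate (1 μM deoxycorticosterone or deoxycortisol, respectively) with inhibitor for 16 h in medium with 2.5% charcoal-treated FCS.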

The target in another test is T2, human CYP11B2 (Homo sapiens, UniProt P19099).
T2 construct: expressed in transfected cells
T2 sequence (P19099 25-503): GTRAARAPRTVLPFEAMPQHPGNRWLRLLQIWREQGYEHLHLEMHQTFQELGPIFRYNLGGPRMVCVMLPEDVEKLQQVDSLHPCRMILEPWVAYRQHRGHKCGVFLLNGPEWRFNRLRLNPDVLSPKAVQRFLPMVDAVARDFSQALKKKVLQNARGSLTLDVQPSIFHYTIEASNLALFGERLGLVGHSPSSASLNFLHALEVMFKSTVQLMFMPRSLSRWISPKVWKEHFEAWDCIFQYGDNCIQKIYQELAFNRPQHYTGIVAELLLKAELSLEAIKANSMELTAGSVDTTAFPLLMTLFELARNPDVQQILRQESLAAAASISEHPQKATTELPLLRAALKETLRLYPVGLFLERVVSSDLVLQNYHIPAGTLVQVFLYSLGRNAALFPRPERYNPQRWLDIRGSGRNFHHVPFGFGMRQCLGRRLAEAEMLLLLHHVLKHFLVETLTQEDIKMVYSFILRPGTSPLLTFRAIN
Put plainly: G-402 cellular enzyme assay, human CYP11B2 (aldosterone release, HTRF). It is filed as cell-based. The following applies: G-402 cells expressing human CYP11B2; 1 μM Deoxycorticosterone. The gist of the method: as §1
A general note: TR-FRET usually uses a lanthanide donor and a delayed reading to cut background.

`CCS(=O)(=O)NC1(c2cncc(-c3ccc4c(c3)CCC(=O)N4C)c2)CC1` [Example 166, Ethanesulfonic acid {1-[5-(1-methyl-2-oxo-1,2,3,4-tetrahydro-quinolin-6-yl)-pyridin-3-yl]-cyclopropyl}-amide]: the figures for the EC50 on human CYP11B1 and at human CYP11B2 were 1210 nM and 22 nM, respectively.
Taken in the same sequence, the figures for `CCS(=O)(=O)N1CCC[C@H]1COc1cncc(-c2ccc3c(c2)CCC(=O)N3C)c1` [Example 167, 6-[5-((S)-1-Ethanesulfonyl-pyrrolidin-2-ylmethoxy)-pyridin-3-yl]-1-methyl-3,4-dihydro-1H-quinolin-2-one] were 898 nM and 18 nM.
Turning to `CCS(=O)(=O)N1CC[C@@H](Oc2cncc(-c3cc4c(cc3F)N(C)C(=O)CC4)c2)C1` [Example 168, 6-[5-((R)-1-Ethanesulfonyl-pyrrolidin-3-yloxy)-pyridin-3-yl]-7-fluoro-1-methyl-3,4-dihydro-1H-quinolin-2-one], the EC50 on human CYP11B1 was 273 nM; on human CYP11B2, 14 nM.
Taken in the same sequence, the figures for `CCS(=O)(=O)N1CC[C@@H](Oc2cncc(-c3ccc4c(c3)CCC(=O)N4C)c2)C1` [Example 169, 6-[5-((R)-1-Ethanesulfonyl-pyrrolidin-3-yloxy)-pyridin-3-yl]-1-methyl-3,4-dihydro-1H-quinolin-2-one] were 850 nM and 35 nM.
The like results for `CCS(=O)(=O)N1CC(Oc2cncc(-c3ccc4c(c3)CCC(=O)N4C)c2)C1` [Example 170, 6-[5-(1-Ethanesulfonyl-azetidin-3-yloxy)-pyridin-3-yl]-1-methyl-3,4-dihydro-1H-quinolin-2-one] were, in that order, 699 nM and 15 nM.
Consider `CCS(=O)(=O)NC1(c2cncc(-c3cc4c(cc3F)N(C)C(=O)CC4)c2)CC1` [Example 171, Ethanesulfonic acid {1-[5-(7-fluoro-1-methyl-2-oxo-1,2,3,4-tetrahydro-quinolin-6-yl)-pyridin-3-yl]-cyclopropyl}-amide], for which the EC50 on human CYP11B1 came to 420 nM; on human CYP11B2, 9 nM.
Turning to `CCS(=O)(=O)N[C@H]1CC[C@H](Oc2cncc(-c3ccc4c(c3)CCC(=O)N4C)c2)CC1` [Example 172, Ethanesulfonic acid {(trans)-4-[5-(1-methyl-2-oxo-1,2,3,4-tetrahydro-quinolin-6-yl)-pyridin-3-yloxy]-cyclohexyl}-amide], the EC50 on human CYP11B1 was found to be 69 nM; on human CYP11B2, 1 nM.
The like results for `CN1C(=O)CCc2cc(-c3cncc(CNC(=O)c4cnn(C)c4)c3)c(F)cc21` [Example 175, 1-Methyl-1H-pyrazole-4-carboxylic acid [5-(7-fluoro-1-methyl-2-oxo-1,2,3,4-tetrahydro-quinolin-6-yl)-pyridin-3-ylmethyl]-amide] were, in that order, 688 nM and 7 nM.
For the compound `CN1C(=O)CCc2cc(-c3cncc(CN4CCCS4(=O)=O)c3)ccc21` [Example 179, 6-[5-(1,1-Dioxo-1λ^6-isothiazolidin-2-ylmethyl)-pyridin-3-yl]-1-methyl-3,4-dihydro-1H-quinolin-2-one], the results for the EC50 on human CYP11B1 and on human CYP11B2 were 169 nM and 12 nM, respectively.
The like results for `CCN(Cc1cncc(-c2ccc3c(c2)CCC(=O)N3C)c1)S(=O)(=O)CC` [Example 181, Ethanesulfonic acid ethyl-[5-(1-methyl-2-oxo-1,2,3,4-tetrahydro-quinolin-6-yl)-pyridin-3-ylmethyl]-amide] were, in that order, 2320 nM and 25 nM.
Taken in the same sequence, the figures for `CCS(=O)(=O)N(C)Cc1cncc(-c2ccc3c(c2)CCC(=O)N3C)c1` [Example 182, Ethanesulfonic acid methyl-[5-(1-methyl-2-oxo-1,2,3,4-tetrahydro-quinolin-6-yl)-pyridin-3-ylmethyl]-amide] were 302 nM and 6 nM.
The like results for `CCS(=O)(=O)NC(C)(C)c1cncc(-c2ccc3c(c2)CCC(=O)N3C)c1` [Example 183, Ethanesulfonic acid {1-methyl-1-[5-(1-methyl-2-oxo-1,2,3,4-tetrahydro-quinolin-6-yl)-pyridin-3-yl]-ethyl}-amide] were, in that order, 268 nM and 4 nM.
`CCS(=O)(=O)N(Cc1cncc(-c2ccc3c(c2)CCC(=O)N3C)c1)C(C)C` [Example 184, Ethanesulfonic acid isopropyl-[5-(1-methyl-2-oxo-1,2,3,4-tetrahydro-quinolin-6-yl)-pyridin-3-ylmethyl]-amide]: the results for the EC50 at human CYP11B1 and on human CYP11B2 were 9740 nM and 227 nM, respectively.
Taken in the same sequence, the figures for `CCOCCN(Cc1cncc(-c2ccc3c(c2)CCC(=O)N3C)c1)S(=O)(=O)CC` [Example 185, Ethanesulfonic acid (2-ethoxy-ethyl)-[5-(1-methyl-2-oxo-1,2,3,4-tetrahydro-quinolin-6-yl)-pyridin-3-ylmethyl]-amide] were 9290 nM and 633 nM.
For `Cc1noc(C)c1C(=O)N(C)Cc1cncc(-c2ccc3c(c2)CCC(=O)N3C)c1` [Example 188, 3,5-Dimethyl-isoxazole-4-carboxylic acid methyl-[5-(1-methyl-2-oxo-1,2,3,4-tetrahydro-quinolin-6-yl)-pyridin-3-ylmethyl]-amide], the EC50 amounted to 572 nM on human CYP11B1 and 14 nM at human CYP11B2.
The like results for `CN1C(=O)CCc2cc(-c3cncc(OCCN4CCCS4(=O)=O)c3)ccc21` [Example 189, 6-{5-[2-(1,1-Dioxo-1λ^6-isothiazolidin-2-yl)-ethoxy]-pyridin-3-yl}-1-methyl-3,4-dihydro-1H-quinolin-2-one] were, in that order, 93 nM and 2 nM.
Taken in the same sequence, the figures for `CCS(=O)(=O)NCc1cncc(-c2cc3c(cc2F)N(C)C(=O)CC3)c1C` [Example 192, Ethanesulfonic acid [5-(7-fluoro-1-methyl-2-oxo-1,2,3,4-tetrahydro-quinolin-6-yl)-4-methyl-pyridin-3-ylmethyl]-amide] were 1980 nM and 29 nM.
The like results for `CCS(=O)(=O)NCc1cncc(-c2ccc3c(c2)CCC(=O)N3C)c1Cl` [Example 193, Ethanesulfonic acid [4-chloro-5-(1-methyl-2-oxo-1,2,3,4-tetrahydro-quinolin-6-yl)-pyridin-3-ylmethyl]-amide] were, in that order, 1010 nM and 22 nM.
In the case of `CCS(=O)(=O)NCc1cncc(-c2ccc3c(c2)CCC(=O)N3C)c1C` [Example 194, Ethanesulfonic acid [4-methyl-5-(1-methyl-2-oxo-1,2,3,4-tetrahydro-quinolin-6-yl)-pyridin-3-ylmethyl]-amide], the EC50 stood at 1700 nM at human CYP11B1 and 41 nM at human CYP11B2.
In the case of `CCS(=O)(=O)N(C)CCOc1cncc(-c2ccc3c(c2)CCC(=O)N3C)c1` [Example 195, Ethanesulfonic acid methyl-{2-[5-(1-methyl-2-oxo-1,2,3,4-tetrahydro-quinolin-6-yl)-pyridin-3-yloxy]-ethyl}-amide], the EC50 on human CYP11B1 amounted to 56 nM; on human CYP11B2, 1 nM.
With `CN(Cc1cncc(-c2ccc3c(c2)CCC(=O)N3C)c1)C(=O)c1ncccc1Cl` [Example 196, 3-Chloro-pyridine-2-carboxylic acid methyl-[5-(1-methyl-2-oxo-1,2,3,4-tetrahydro-quinolin-6-yl)-pyridin-3-ylmethyl]-amide], the values for the EC50 on human CYP11B1 and at human CYP11B2 were 514 nM and 8 nM, respectively.
Take `CCC(=O)N(C)CCOc1cncc(-c2ccc3c(c2)CCC(=O)N3C)c1` [Example 197, N-Methyl-N-{2-[5-(1-methyl-2-oxo-1,2,3,4-tetrahydro-quinolin-6-yl)-pyridin-3-yloxy]-ethyl}-propionamide]: the EC50 on human CYP11B1 was determined as 62 nM; at human CYP11B2, 4 nM.
The like results for `CN(Cc1cncc(-c2ccc3c(c2)CCC(=O)N3C)c1)C(=O)c1cnn(C)c1` [Example 198, 1-Methyl-1H-pyrazole-4-carboxylic acid methyl-[5-(1-methyl-2-oxo-1,2,3,4-tetrahydro-quinolin-6-yl)-pyridin-3-ylmethyl]-amide] were, in that order, 188 nM and 7 nM.
Taken in the same sequence, the figures for `Cc1cccnc1C(=O)N(C)Cc1cncc(-c2ccc3c(c2)CCC(=O)N3C)c1` [Example 199, 3-Methyl-pyridine-2-carboxylic acid methyl-[5-(1-methyl-2-oxo-1,2,3,4-tetrahydro-quinolin-6-yl)-pyridin-3-ylmethyl]-amide] were 28 nM and 3 nM.

The term EC50 denotes the midpoint of the concentration-response curve.
